The results in this text go back to PMC12738692, “Identification, characterization, and structure-activity relationship of the ASIC3-selective peptide WRPRFa” (Communications Chemistry, 2025).

Substitutions are numbered along the chain they refer to. Where no end group is shown, it is not given here. Bounds are passed on as bounds.

In general, EC50 refers to the concentration needed to bring the measured effect to its halfway point.

Assay type in all cases: cell-based
The target in experiment [1] is T1, human ASIC3 (Homo sapiens, UniProt Q9UHC3).
T1 construct: CHO cells stably expressing human ASIC3 (NM_004769.1)
T1 sequence (Q9UHC3 1-531): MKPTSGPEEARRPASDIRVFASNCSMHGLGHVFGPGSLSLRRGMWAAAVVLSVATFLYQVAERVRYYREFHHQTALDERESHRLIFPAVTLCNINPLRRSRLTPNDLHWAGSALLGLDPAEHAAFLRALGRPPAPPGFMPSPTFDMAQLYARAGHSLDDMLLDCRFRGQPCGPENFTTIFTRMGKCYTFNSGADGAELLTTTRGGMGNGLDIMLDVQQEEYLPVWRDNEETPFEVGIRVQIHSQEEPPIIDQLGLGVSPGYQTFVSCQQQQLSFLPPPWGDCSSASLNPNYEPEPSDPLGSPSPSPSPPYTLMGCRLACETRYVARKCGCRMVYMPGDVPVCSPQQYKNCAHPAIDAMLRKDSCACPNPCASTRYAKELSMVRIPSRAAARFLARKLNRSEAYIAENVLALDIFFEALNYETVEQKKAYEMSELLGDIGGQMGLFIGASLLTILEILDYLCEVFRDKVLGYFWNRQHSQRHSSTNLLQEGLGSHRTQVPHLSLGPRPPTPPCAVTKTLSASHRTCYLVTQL
Conditions: from pH-dependence of activation.

Experiment [2] concerns the target T1, human ASIC3. Briefly: QPatch II peptide concentration-response (I3s/Ipk). Conditions: WT ASIC3, QPatch II, read-out: EC50 (95% CI). As to the method:
RFamide peptide activity on ASIC3 was measured on the QPatch II platform (Sophion, Ballerup, Denmark) using either a CHO or HEK stable cell line and analyzed with Sophion Analyzer software (version 5.2). Prior to recording, the cells were washed twice in PBS (Gibco, Paisley, UK) and treated with Detachin (Genlantis, San Diego) for 3 min, then resuspended in their respective growth media without serum for a concentration of 2 × 10^6 cells/ml. A minimum of 5 mL of cells was added to the QStirrer, which was placed on the deck of the QPatch II and allowed to incubate at room temperature for a minimum of 20 min.
The bath solution contained 135 mM NaCl, 5 mM KCl, 4.8 mM CaCl2, 1 mM MgCl2, 10 mM HEPES, 10 mM MES, and 10 mM glucose adjusted to pH 7.4 with NaOH. The intracellular solution contained 65 mM CsF, 65 mM CsCl, 10 mM HEPES, 5 mM EGTA, 1 mM MgCl2, adjusted to pH 7.4 with CsOH. Cells were held at -60 mV and ASIC currents were evoked with 3 s applications of pH 6.3 buffer. Peptides were preincubated for at least 2 min. The extracellular solution was changed by dispensing 5 µL of buffer through the ~1.7 µL recording chamber, with a solution switch time of 100 ms, that exchanges 99% of the solution. Signals were acquired at 1 kHz and low-pass filtered at 300 Hz. Experiments performed on QPatch II are specifically indicated in the text.
(Patch clamp records ionic current or voltage across a cell membrane.)

The target of experiment [3] is T2, ASIC3 E421Q (Homo sapiens, UniProt Q9UHC3, E421Q).
T2 construct: human ASIC3 (NM_004769.4); P2A-mCherry reporter (C, cleaved yes); expressed in transfected cells; host or cells: CHO cells (85050302, Sigma), transient transfection
T2 sequence (Q9UHC3 1-531 E421Q): T1 sequence (Q9UHC3 1-531) with E421Q
Put plainly: MPC peptide activity on ASIC3 E421Q mutant. Conditions: Emax constrained, read-out: EC50 (95% CI).
Procedure: We individually mutated the four glutamates to glutamine to remove their charge but maintain the side chain structure (Fig. 4C). We tested each mutant by incubating HEK cells stably expressing ASIC3 or CHO cells transfected with mutant ASIC3 with 30 µM WRPRFa before a pH 6.3 acid stimulus.
Plasmids were transfected into CHO cells using Lipofectamine 3000 (Thermo) according to the manufacturer’s protocol. Cells were used for patch-clamp recordings 24–48 h after transfection.
CHO and HEK cells were tested in the whole-cell configuration on MPC platforms using an Axopatch 200B amplifier (Axon Instruments, San Jose, CA) and a Digidata 1322A or Digidata 1440A digitizer (Axon) using pClamp 9.2 or 10.7 (Molecular Devices, San Jose, CA), respectively. When testing transfected cells, red fluorescence from the cleaved mCherry reporter was used to identify cells expressing ASIC3, ASIC131, or ASIC313. For cells expressing transfected ASIC1a or ASIC2a, the green signal from the cleaved eGFP reporter was used. All electrophysiology data were analyzed with Clampfit 11.1 (Molecular Devices).
For peptide concentration-response curves, Bottom was set to 0 and Top was constrained to ≤ 1 for peptides that approached plateau phase or where I3s/Ipk reached 1. […] For activation- or desensitization-pH curves, Bottom was set to 0 and Top constrained to 1.

In the case of WRPRF-NH2 [WRPRFa], in experiment [1], the “peptide-bound channels activated by pH 6.3” value is listed as 99.7%. The values for the EC50 in experiment [2] and in experiment [3] were 6.31 µM and at least 22.5 µM, respectively.
